Tested on: tissue
Experiment: Local tissue toxicity of glutaraldehyde by concentration
Type: in vivo
Details: below this level limited local toxicity

`O=CCCCC=O` [glutaraldehyde] was tested, and the “concentration that produces significant tissue necrosis” value was no less than 0.75%.

Reference: patent US8911750B2, “Lung volume reduction therapy using crosslinked biopolymers” (priority 2007, dated 2014)
